# Laboratory results: ChEMBL document CHEMBL1141768, “Constituents of Vittaria anguste-elongata and their biological activities” (J Nat Prod, 2005)
# pIC50: −log10 of the molar value.
# How the values were obtained:
# Assay type in all cases: functional
# [1] = system: Radical scavenging activity; test: Antioxidant activity assessed as DPPH free radical scavenging activity after 30 mins
# NCI-H460 = test: Cytotoxicity against human NCI-H460 cells at 58 uM
# SF-268 = test: Cytotoxicity against human SF268 cells at 58 uM
Molecule,pIC50 [1],inhibition at 58 µM (NCI-H460),inhibition at 58 µM (SF-268)
COc1cc(-c2cc(=O)c3c(O)cc(O)cc3o2)cc(OC)c1OC,,89%,61%
O=C(/C=C/c1ccc(O)c(O)c1)OC[C@H](O)[C@H]1OC(=O)[C@H](O)[C@H]1O,4.04,,

# Continued by rising pIC50 [1], values first:
pIC50 [1],Molecule,inhibition at 58 µM (NCI-H460),inhibition at 58 µM (SF-268)
3.46,VITAMIN E,,
3.54,C[C@H]1OC(=O)[C@@H](O)[C@@H]1OC(=O)/C=C/c1ccc(O)c(O)c1,,
3.63,CCOC(=O)[C@]1(O)C[C@@H](O)[C@H](OC(=O)/C=C/c2ccc(O)c(O)c2)[C@H](O)C1,,
